Data: patent publication US7323484B2, “Farnesyl transferase inhibitors” (Societe de Conseils de Recherches et d'Applications …, priority 1996, dated 2008)

Test system: MIA-PaCa pancreatic cancer cells (expressing mutated Ki-ras gene)
Experiment: Antiproliferative activity on human tumoral cells, WST-1 assay, MIA PaCa-2
Assay type: cell-based
Conditions: MIA PaCa-2 cells, 96 hrs treatment, 0 to 100 μM, WST-1, compared to control cells
Protocol: Antiproliferative Activity of Farnesyl-Transferase Inhibitors on Human Tumoral Cells
The assays were performed using either A-427 lung carcinomas (expressing mutated Ki-ras gene), HT-29 colon adenocarcinomas (expressing wild type ras gene), Calu-1 lung carcinomas (expressing mutated Ki-ras gene), and MIA-PaCa pancreatic cancer cells (expressing mutated Ki-ras gene). These tumoral cells were seeded on 96 well plates at day 0 and maintained at 37° C. in 5% CO2 atmosphere. At day 1, cells were treated with increased concentrations of test compounds ranging from 0 to 100 μM for 96 hrs. At the end of this period, the quantification of cell proliferation was evaluated by the calorimetric assay based on the cleavage of the tetrazolium salt WST-1 by mitochondrial dehydrogenases in viable cells leading to the formazan formation (Cell Proliferation Reagent WST-1 Kit, Boehringer Mannheim, Germany). These experiments, done in octuplicate, were repeated twice. The results, shown in Table I, depict the concentration range (μM) of test compound required to inhibit proliferation as compared to control cells in which no test compound was added.

| SMILES | concentration range of test compound required to inhibit proliferation, MIA PaCa-2 |
| --- | --- |
| COc1ccccc1-c1cn2c(n1)[C@H](C(C)(C)C)N(C(=O)[C@@H](N)CSSC[C@H](N)C(=O)N1CCn3cc(-c4ccccc4OC)nc3[C@@H]1C(C)(C)C)CC2 [Compound 30, bis-1,1′-[7-(2-amino-1-oxo-3-thiopropyl)-8-(1,1-dimethylethyl)-2-(2-methoxyphenyl)-5,6,7,8-tetrahydroimidazo[1,2a]pyrazine]disulfide] | 12.5 to 25 µM |
| CCC(C)[C@H]1c2nc(-c3ccccc3OC)cn2CCN1C(=O)[C@@H](N)CSSC[C@H](N)C(=O)N1CCn2cc(-c3ccccc3OC)nc2[C@@H]1C(C)CC (stereo partly shown) [Compound 20, bis-1,1′-[7-(2-amino-1-oxo-3-thiopropyl)-2-(methoxyphenyl)-8-(1-methylpropyl)-5,6,7,8-tetrahydroimidazo[1,2a]pyrazine]disulfide] | 12.5 µM |
| CCC(C)[C@H]1c2nc(-c3ccccc3OCc3ccccc3)cn2CCN1C(=O)[C@@H](N)CS (stereo partly shown) [Compound 25, 7-(2-amino-1-oxo-3-thiopropyl)-8-(1-methylpropyl)-2-(2-(phenylmethoxy)phenyl)-5,6,7,8-tetrahydroimidazo[1,2a]pyrazine] | 6.25 to 12.5 µM |
| COc1ccccc1-c1cn2c(n1)[C@H](CC1CCCCC1)N(C(=O)[C@@H](N)CS)CC2 [Compound 26, 7-(2-amino-1-oxo-3-thiopropyl)-8-(cyclohexylmethyl)-2-(2-methoxyphenyl)-5,6,7,8-tetrahydroimidazo[1,2a]pyrazine] | 6.25 to 12.5 µM |
| CCCC[C@H]1c2nc(-c3ccccc3OC)cn2CCN1C(=O)[C@@H](N)CS [Compound 3, 7-(2-amino-1-oxo-3-thio-propyl)-8-butyl-2-(2-methoxy-phenyl)-5,6,7,8-tetrahydro-imidazo-[1,2a]-pyrazine] | 12.5 to 25 µM |
| COc1ccccc1-c1cn2c(n1)[C@H](C(C)(C)C)N(C(=O)[C@@H](N)CS)CC2 [Compound 24, 7-(2-amino-1-oxo-3-thiopropyl)-8-(1,1-dimethylethyl)-2-(2-methoxyphenyl)-5,6,7,8-tetrahydroimidazo[1,2a]pyrazine] | 25 to 50 µM |
| CCCC[C@H]1c2nc(-c3c(O)cccc3OC)cn2CCN1C(=O)[C@@H](N)CS [Compound 29, 7-(2-amino-1-oxo-3-thiopropyl)-8-butyl-2 (2-hydroxy-6-methoxyphenyl)-5,6,7,8-tetrahydro[1,2a]pyrazine] | 6.25 to 12.5 µM |
